The values that follow come from PubChem BioAssay (NCI).

Test systems include U251 CNS; HCT-116 colon; NCI-H460 lung; SNB-19 CNS; SK-MEL-28 melanoma; UO-31 renal; SNB-75 CNS; M14 melanoma; HCT-15 colon.
Common to all, as to experiment: growth of human tumour cells (NCI), 48 h

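Cultured in 96-well plates, cells were exposed to test compound for 48 hours across five concentrations. GI50 marks 50% less growth. TGI denotes the concentration required for complete inhibition of growth.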

On to `CC(=O)[CH-]C(=O)c1ccccc1.CC(=O)[CH-]C(=O)c1ccccc1.CC(=O)[CH-]C(=O)c1ccccc1.[In+3]`, for which the GI50 in the experiment with U251 CNS was 22.8 µM; in the experiment on HCT-116 colon it was 9.32 µM; with NCI-H460 lung it was 16.6 µM; with SNB-19 CNS, greater than 100 µM; in the experiment on SK-MEL-28 melanoma, 34.2 µM; in the experiment with UO-31 renal it was 29.7 µM. In addition, the GI50 in the experiment on SNB-75 CNS was 19.8 µM; in the experiment with M14 melanoma it was 26.8 µM. For the same molecule, the TGI is greater than 100 µM in the experiment on U251 CNS; greater than 100 µM in the experiment on HCT-116 colon; greater than 100 µM with NCI-H460 lung; greater than 100 µM in the experiment on SNB-19 CNS; greater than 100 µM in the experiment with SK-MEL-28 melanoma; 94 µM with UO-31 renal. In addition, the TGI in the experiment on SNB-75 CNS and in the experiment on M14 melanoma was greater than 100 µM in each case.

For the molecule `C[CH2][Sn]([CH2]C)([O]C(=O)c1ccccc1F)[O][Sn]([CH2]C)([CH2]C)[O]C(=O)c1ccccc1F`, the GI50 was 17.1 µM in the experiment with U251 CNS; 38 µM in the experiment on HCT-116 colon; greater than 54 µM with NCI-H460 lung; greater than 43.6 µM with SNB-19 CNS; 18.7 µM in the experiment with SK-MEL-28 melanoma; greater than 72.4 µM in the experiment with UO-31 renal. Besides, the GI50 in the experiment with SNB-75 CNS was 25.1 µM; in the experiment with M14 melanoma, 26.5 µM; in the experiment with HCT-15 colon, 34.3 µM. The TGI in the experiment on U251 CNS was 31.6 µM; with HCT-116 colon, greater than 70.9 µM; in the experiment on NCI-H460 lung, greater than 100 µM; in the experiment on SNB-19 CNS, greater than 57.6 µM; in the experiment with SK-MEL-28 melanoma, 33.4 µM; in the experiment with UO-31 renal it was greater than 100 µM. For the same molecule, the TGI was greater than 57.8 µM in the experiment with SNB-75 CNS, greater than 57.2 µM with M14 melanoma and greater than 62.8 µM in the experiment with HCT-15 colon.

For the molecule `CCOC(=O)/C(O)=C(/C(=O)OC)c1ccc(Cl)cc1`, the TGI in the experiment with U251 CNS, in the experiment with NCI-H460 lung, in the experiment on SNB-19 CNS, with SK-MEL-28 melanoma, in the experiment on UO-31 renal and in the experiment with SNB-75 CNS was greater than 100 µM throughout. In addition, the TGI in the experiment with M14 melanoma and with HCT-15 colon was greater than 100 µM throughout.

As for `CCN(CC)c1oc(N(CC)CC)c(C(=O)Nc2ccccn2)c(=O)c1C(C)=O`, the TGI in the experiment on U251 CNS, in the experiment with HCT-116 colon, in the experiment with NCI-H460 lung, in the experiment with SNB-19 CNS, with SK-MEL-28 melanoma and in the experiment with UO-31 renal was greater than 100 µM in each case. Also, the TGI in the experiment on SNB-75 CNS, in the experiment with M14 melanoma and with HCT-15 colon was greater than 100 µM in each case.

With `C=C1CC[C@@H]2[C@](C)(COC(C)=O)[C@H](OC(C)=O)CC[C@@]2(C)[C@@H]1CC(Nc1ccc(S(=O)(=O)Nc2ccc(Cl)nn2)cc1)C1=CCOC1=O` (some centres undefined), the GI50 in the experiment with U251 CNS was 1.68 µM; with HCT-116 colon it was 1.08 µM; in the experiment on NCI-H460 lung, 2.03 µM; with SNB-19 CNS, 1.91 µM; in the experiment on SK-MEL-28 melanoma it was 1.68 µM; in the experiment on UO-31 renal, 1.45 µM. For the same molecule, the GI50 is 1.44 µM with SNB-75 CNS, 1.45 µM in the experiment on M14 melanoma and 0.882 µM in the experiment with HCT-15 colon. For the same molecule, the TGI with U251 CNS was 3.05 µM; in the experiment on HCT-116 colon, 2.32 µM; in the experiment with NCI-H460 lung, 4.31 µM; in the experiment on SNB-19 CNS it was 3.91 µM; in the experiment with SK-MEL-28 melanoma, 3.46 µM; in the experiment on UO-31 renal, 2.88 µM. Further, the TGI came to 5.9 µM with SNB-75 CNS, 3.41 µM in the experiment with M14 melanoma and 2.3 µM in the experiment with HCT-15 colon.

As to `CN(C)C(=O)c1ccc([N+](=O)[O-])cc1`, the TGI with U251 CNS, in the experiment on HCT-116 colon, with NCI-H460 lung, in the experiment with SNB-19 CNS, with SK-MEL-28 melanoma and in the experiment with UO-31 renal was greater than 100 µM each time. Also, the TGI with SNB-75 CNS, in the experiment with M14 melanoma and in the experiment on HCT-15 colon was greater than 100 µM throughout.

As for `COc1ccc(CC2(Cc3ccc(OC)cc3)CCOC2=O)cc1`, the TGI in the experiment with U251 CNS, in the experiment on HCT-116 colon, in the experiment on NCI-H460 lung, in the experiment with SNB-19 CNS, in the experiment with SK-MEL-28 melanoma and with UO-31 renal was greater than 100 µM each time. The TGI in the experiment with SNB-75 CNS is 48.9 µM; in the experiment on M14 melanoma it was greater than 100 µM.

Consider `CC(=O)O[C@H]1CCC2[C@@H]3CCC4c5nonc5CC[C@]4(C)C3CC[C@@]21C` (some centres undefined), for which the TGI in the experiment on U251 CNS is greater than 10 µM; with HCT-116 colon, greater than 100 µM; with NCI-H460 lung, greater than 10 µM; in the experiment with SNB-19 CNS it was greater than 10 µM; in the experiment with SK-MEL-28 melanoma it was greater than 10 µM; with UO-31 renal, greater than 10 µM. For the same molecule, the values for the TGI with SNB-75 CNS, in the experiment with M14 melanoma and in the experiment with HCT-15 colon were greater than 100 µM, greater than 10 µM and greater than 10 µM, respectively. For the same molecule, the figures for the GI50 in the experiment with HCT-116 colon and with SNB-75 CNS were greater than 100 µM and greater than 10 µM, respectively.

Consider `COC(=O)C(CC1=C(O)Nc2ccccc2N1)/C(=N/NC(N)=O)C(=O)Nc1ccccc1C` (centres undefined), for which the TGI with U251 CNS is greater than 100 µM; with HCT-116 colon, 36.8 µM; in the experiment on NCI-H460 lung, greater than 100 µM; in the experiment on SNB-19 CNS, greater than 100 µM; in the experiment on SK-MEL-28 melanoma, greater than 100 µM; with UO-31 renal, greater than 100 µM. The TGI with SNB-75 CNS is greater than 100 µM; with M14 melanoma it was greater than 100 µM; in the experiment with HCT-15 colon, 34.1 µM.

On to `CCc1ccccc1NC(=O)/C(N=O)=C(/C)O`, for which the TGI in the experiment on U251 CNS, with HCT-116 colon, with NCI-H460 lung, in the experiment on SNB-19 CNS, in the experiment with SK-MEL-28 melanoma and with UO-31 renal was greater than 100 µM each time. Moreover, the TGI in the experiment with SNB-75 CNS, in the experiment on M14 melanoma and in the experiment on HCT-15 colon was greater than 100 µM throughout.

Turning to `O=C(NC(=Nc1ccccc1)SCCSC(=Nc1ccccc1)NC(=O)c1cccs1)c1cccs1`, the TGI is greater than 100 µM with U251 CNS; greater than 100 µM in the experiment with HCT-116 colon; greater than 100 µM in the experiment on NCI-H460 lung; greater than 100 µM in the experiment on SNB-19 CNS; greater than 100 µM in the experiment with SK-MEL-28 melanoma; 92.8 µM with UO-31 renal. The results for the TGI with SNB-75 CNS, with M14 melanoma and in the experiment on HCT-15 colon were 99.8 µM, greater than 100 µM and greater than 100 µM, respectively.
